Data set [1] concerns CT26 tumors. As to the kind of experiment: CT26 subcutaneous tumor model, ER-886046 with radiation. It is filed as in vivo, mice. On the procedure:
FIG. 1A to FIG. 1B. […] Panel shown in FIG. 1A) Average tumor sizes of the CT26 tumor-bearing mice that received 9 Gy radiation+ER-886046, 9 Gy radiation alone, or vehicle alone. Panel shown in FIG. 1B) Average animal body weight of the CT-26 tumor-bearing mice. Radiation treatment: 9 Gy single dose on day 9; ER-886046 dosing: 150 mg/kg, oral (po) administration daily from day 9 to day 32. Administration of radiation and ER-886046 to the tumor-bearing mice is indicated by the arrows and bars, respectively. N=10-12 per group. *, p<0.05, student t-test.
FIG. 2A to FIG. 2C. Tumor growth plots of the individual CT-26 tumors treated with radiation/ER-886046 or radiation alone. The animals are of the experiment described in FIG. 1A and FIG. 1B. Panel shown in FIG. 2A) Vehicle treatment group. Panel shown in FIG. 2C) Radiation plus ER-886046. N=10-12 per group. […] Radiation treatment: 9 Gy single dose on day 9; ER-886046 dosing: 150 mg/kg, oral (po) administration daily from day 9 to day 32. Each line represents an individual animal.
FIG. 3. Improved tumor growth suppression and animal survival by low dose radiation/ER-886046 compared with low dose radiation alone. Plots of animal survival status among indicated treatment groups. Radiation treatment: 3 Gy single dose on day 17; ER-886046 dosing: 150 mg/kg, po administration daily from days 17 to 45. […] N=10 per group. *, p<0.05; ***, p<0.001; Gehan-Breslow-Wilcoxon test.
Animal studies; In vitro cultured cancer cells were harvested and suspended in 100 μl of phosphate buffered saline at a cell concentration of 1.0×10^5 cells/ml and subcutaneously (sc) injected into the mice using a 26 g syringe on day 0. At the days post cell implantation as indicated in the figures, the mice were randomized based on the tumor size followed by treatments with radiation at 3 or 9 Gy dose per treatment, anti-PDL1 at 200 μg/mouse per intraperitoneal injection (ip), or anti-CTLA4 at 200 or 100 μg/mouse per ip injection with or without orally administration of ER-886046 at a dose of 150 mg/kg. The animals that were assigned to the treatment groups in individual study had close mean tumor weights in all groups. The tumor sizes were measured twice a week by a digital caliper (Mitutoyo Corp), and the volume was calculated using the formula (1×w^2)/2=mm^3, where 1 and w refer to the larger and smaller perpendicular dimensions collected at each measurement. Graphs of group tumor sizes (mean±SEM) and body weights (mean±SEM) versus time were plotted using software GraphPad Prism 6 (Lake Forest, Calif.). Student t-test and Gehan-Breslow-Wilcoxon test were used for statistical analysis.

The subject of another data set is CT26 cells. The experiment in a line: Rechallenge of cured (tumor-free) mice with CT26 cells. It is filed as in vivo. The settings on record: mice cured by ER-886046 + radiation. From the text:
FIG. 4A to FIG. 4C. Long lasting anti-tumor effect with a memory immune response by ER-886046/radiation treatment. Panel shown in FIG. 4A) Tumor growth in the cured mice by ER-886046 and radiation combination treatment or in the naïve Ba1B/c mice that received injection of CT26 cells. Panel shown in FIG. 4B) Tumor growth of secondarily challenged CT-26 tumors in the cured mice or in naïve mice. Panel shown in FIG. 4C) Growth of 4T1 tumors in cured mice or in naïve mice. N=9-10. Note the complete rejection of challenged CT-26 tumor and reduced growth of challenged 4T1 tumors in the combination cured mice. ***, p<0.001. 2 tailed student t-test. Note that no treatment was applied to any animals.
In case of tumor rechallenge of tumor-free mice after treatments, CT26 cells and 4T1 cells were individually sc injected into the different flanks of the same mouse, and the growth of each tumor was measured and graphed as described above. Naïve mice that received neither cancer cell injection nor drug treatment were included as controls. […] At the end of study on day 27, the mice in all treatment groups were intranasally administered luciferin and the lungs were resected and analysed for luciferase expression using IVIS instrument. Quantification of the luciferase activity in the lungs was achieved by software Living Image.

The test system of data set [2] is CT26 tumors. As to the kind of experiment: CT26 tumor model, ER-886046 with anti-PDL1 or anti-PD1. It is filed as in vivo, mice. On the procedure: FIG. 9A to FIG. 9B. […] Anti-PDL1 dosing: 200 μg per iv injection on days 9, 12, 15 and 18 post cell implantation as indicated by the arrows; […] Anti-PD1 dosing: 200 μg per iv injection on days 9, 12, 15, 18 and 21 post cell implantation as indicated by the arrows; […] Animal studies; In vitro cultured cancer cells were harvested and suspended in 100 μl of phosphate buffered saline at a cell concentration of 1.0×10^5 cells/ml and subcutaneously (sc) injected into the mice using a 26 g syringe on day 0. […] The animals that were assigned to the treatment groups in individual study had close mean tumor weights in all groups. […] Graphs of group tumor sizes (mean±SEM) and body weights (mean±SEM) versus time were plotted using software GraphPad Prism 6 (Lake Forest, Calif.). Student t-test and Gehan-Breslow-Wilcoxon test were used for statistical analysis.

The mark [3] stands for this setting: ER-886046 150 mg/kg po daily day 9-32 + radiation 9 Gy single dose day 9.

One compound from patent US11707448B2, “Combination therapies for the treatment of cancer” (Eisai R&D Management Co., Ltd., priority 2014, dated 2023) can be followed below.

As for `C[C@H](NC(=O)c1c(C(F)F)nn(C)c1Oc1cccc(C(F)(F)F)c1)c1ccc(C(=O)O)cc1` [ER-886046], the “gross health and animal body weight compared to radiation alone” value with CT26 tumors [1] (ER-886046 150 mg/kg po daily added to 9 Gy radiation) is “did not impact the gross health and animal body weight”. Further, the “tumors with fast progression” value with CT26 tumors [1] (ER-886046 150 mg/kg po daily day 9-32 + radiation 9 Gy) was 1 out of 12. Besides, in the data set with CT26 tumors [1] (setting [3]), the “anti-tumor activity compared to radiation alone” value was “statistically significantly improved” and the “tumor growth (average tumor size)” value is recorded as “sustained tumor growth inhibition until the end of the study on day 49”. The “cure (complete tumor regression)” value with CT26 tumors [1] (ER-886046 150 mg/kg po daily day 9-32 + radiation 9 Gy, end of study) is on record as 9 out of 12. Moreover, the animal survival entry in the data set with CT26 tumors [1] (ER-886046 150 mg/kg po daily days 17-45 + low dose radiation 3 Gy single dose day 17, vs vehicle or radiation alone) is listed as “significantly increased the animal survival”. The “tumor recurrence in the 9 tumor-free mice” value with CT26 tumors [1] (cured by ER-886046 + radiation, followed for an additional 2 months) is “no tumor recurrence”. In addition, in the data set with CT26 cells (1.5 months after the first challenge), the “tumor growth after secondary CT26 challenge” value is reported as “did not produce detectable tumor”. Also, in the data set with CT26 cells (monitored 1.5 months, no further treatment), the “tumor growth after CT26 challenge at another site” value is “did not grow tumors at all”. In addition, the “anti-tumor activity compared to anti-PDL1 alone” value in the data set with CT26 tumors [2] (ER-886046 150 mg/kg po daily day 9-19 + anti-PDL1 200 μg) is on record as “better anti-tumor activity”. Also, the “anti-tumor activity compared to anti-PD1 alone” value in the data set on CT26 tumors [2] (ER-886046 150 mg/kg po daily day 9-23 + anti-PD1 200 μg) is “better anti-tumor activity”.
